10 compounds from ChEMBL document CHEMBL1201862, “PubChem BioAssay data set” (2004) can be followed below.

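Grown in 96-well plates, cells were treated for 48 hours with each compound at five concentrations. Insufficient inhibition: endpoint recorded as highest concentration tested. At the GI50, growth is halved.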 Calls of active or inactive are those of the source. Cut-off read from the data, not from the text of the source: active = GI50 up to about 1.1 µM and inactive = higher.

Test systems include SK-MEL-2; NCI/ADR-RES; HOP-62; OVCAR-3; SNB-75; MDA-MB-231; 786-0; T47D; ACHN; RXF 393; SNB-19; MDA-MB-435; RPMI-8226; TK-10; CCRF-CEM; A498; OVCAR-4; EKVX; KM12; PC-3.
Assay in all cases: NCI anticancer screen, dose series, 48 h

As to `C/C(=N\Nc1nc2ccccc2[nH]1)c1ccncn1`, the GI50 with SK-MEL-2 is 0.617 µM (active); in the experiment with NCI/ADR-RES it was 0.153 µM (active); in the experiment with HOP-62, 0.0951 µM (active); in the experiment on OVCAR-3 it was 0.25 µM (active); in the experiment with SNB-75 it was 0.352 µM (active); with MDA-MB-231 it was 3.64 µM (inactive). Moreover, the GI50 in the experiment with 786-0 is 0.0693 µM (active); in the experiment on T47D it was 0.103 µM (active); in the experiment with ACHN it was 0.0441 µM (active); with RXF 393, 0.413 µM (active); in the experiment with SNB-19, 0.246 µM (active); in the experiment on MDA-MB-435, 0.154 µM (active). The GI50 with RPMI-8226 was 0.196 µM (active); in the experiment with TK-10 it was 3.43 µM (inactive); with CCRF-CEM, 0.0776 µM (active); with A498, 0.237 µM (active); in the experiment with OVCAR-4, 0.324 µM (active); with EKVX, 0.133 µM (active). The GI50 is 0.27 µM (active) with KM12 and 2.61 µM (inactive) in the experiment with PC-3.
Turning to `Cc1ccc(Nc2ncnc3sc(SCc4ccccc4)nc23)cc1`, the GI50 in the experiment with SK-MEL-2, with NCI/ADR-RES, in the experiment on HOP-62, in the experiment with OVCAR-3, with SNB-75 and in the experiment with MDA-MB-231 was > 100 µM (inactive) throughout. Besides, the GI50 in the experiment on 786-0 was > 100 µM (inactive); with T47D, 84.7 µM (inactive); with ACHN it was 32 µM (inactive); with RXF 393 it was 84.9 µM (inactive); in the experiment on SNB-19, > 100 µM (inactive); with MDA-MB-435, > 100 µM (inactive). Besides, the GI50 with RPMI-8226 was 48 µM (inactive); in the experiment with TK-10 it was 52.4 µM (inactive); with CCRF-CEM, > 100 µM (inactive); in the experiment with A498, 8.81 µM (inactive); in the experiment on OVCAR-4 it was > 100 µM (inactive); with EKVX it was > 100 µM (inactive). Also, the GI50 in the experiment with KM12 was > 100 µM (inactive); in the experiment on PC-3, 90.6 µM (inactive).
`CC(C)(C)C(=O)C(C(c1ccccc1)N1CCOCC1)N1CCOCC1` (configuration not stated): the GI50 in the experiment with SK-MEL-2, with NCI/ADR-RES, with HOP-62, in the experiment with OVCAR-3, in the experiment on SNB-75 and with MDA-MB-231 was > 100 µM (inactive) in each case. The GI50 with 786-0, with T47D, in the experiment with ACHN, in the experiment with RXF 393, in the experiment with SNB-19 and in the experiment on MDA-MB-435 was > 100 µM (inactive) in each case. Further, the GI50 with RPMI-8226, in the experiment on TK-10, in the experiment with CCRF-CEM, in the experiment on A498, with OVCAR-4 and in the experiment with EKVX was > 100 µM (inactive) throughout. Also, the GI50 in the experiment with KM12 and with PC-3 was > 100 µM (inactive) throughout.
Take `CC1(C)C2CC3C4CC5(Nc6ccccc6C5N41)[C@]3(C)CC2=O` (some centres not stated): the GI50 in the experiment with SK-MEL-2, with NCI/ADR-RES, in the experiment on HOP-62, in the experiment on OVCAR-3, with SNB-75 and with MDA-MB-231 was > 50 µM (inactive) in each case. Besides, the GI50 with 786-0 was > 50 µM (inactive); in the experiment with T47D it was 9.82 µM (inactive); in the experiment with ACHN it was > 50 µM (inactive); with RXF 393, > 50 µM (inactive); with MDA-MB-435, > 50 µM (inactive); in the experiment with RPMI-8226, > 50 µM (inactive). In addition, the GI50 with TK-10, in the experiment on CCRF-CEM, in the experiment on A498, with OVCAR-4, with EKVX and with KM12 was > 50 µM (inactive) in each case. The GI50 with PC-3 is > 50 µM (inactive).
As for `S=c1[nH]nc(Cn2c3ccc(Br)cc3c3nc4ccccc4nc32)n1C1CCCCC1`, the GI50 in the experiment with SK-MEL-2 was 23.1 µM (inactive); in the experiment on NCI/ADR-RES it was 27 µM (inactive); in the experiment on HOP-62 it was 18.6 µM (inactive); in the experiment on OVCAR-3 it was 18.5 µM (inactive); with SNB-75, 52.2 µM (inactive); with MDA-MB-231, 36.5 µM (inactive). For the same compound, the GI50 is 20.7 µM (inactive) with 786-0; 19.4 µM (inactive) in the experiment on T47D; 29.4 µM (inactive) in the experiment with ACHN; 18.5 µM (inactive) in the experiment with RXF 393; 43.5 µM (inactive) in the experiment with SNB-19; 20.3 µM (inactive) in the experiment on MDA-MB-435. Further, the GI50 in the experiment on RPMI-8226 was 17.7 µM (inactive); in the experiment on TK-10 it was > 47.8 µM (inactive); in the experiment on CCRF-CEM it was 25.6 µM (inactive); in the experiment with A498, 20.5 µM (inactive); in the experiment with OVCAR-4, 13.7 µM (inactive); in the experiment with EKVX, 35 µM (inactive). For the same compound, the GI50 is 32.7 µM (inactive) in the experiment with KM12 and 20.4 µM (inactive) in the experiment with PC-3.
With `CN1CN(c2ccccc2)C2(CCN(Cc3nc4ccccc4s3)CC2)C1=O`, the GI50 with SK-MEL-2 was 18.6 µM (inactive); in the experiment on NCI/ADR-RES, 15.5 µM (inactive); with HOP-62, 16.6 µM (inactive); in the experiment with OVCAR-3, 15.7 µM (inactive); with SNB-75, 16.7 µM (inactive); in the experiment on MDA-MB-231, 14.1 µM (inactive). For the same compound, the GI50 is 17.2 µM (inactive) in the experiment with 786-0; 16.2 µM (inactive) in the experiment on T47D; 19.6 µM (inactive) in the experiment on ACHN; 14.6 µM (inactive) in the experiment with RXF 393; 15 µM (inactive) in the experiment on SNB-19; 17.8 µM (inactive) with MDA-MB-435. For the same compound, the GI50 in the experiment with RPMI-8226 was 16 µM (inactive); in the experiment with TK-10, 16.3 µM (inactive); with CCRF-CEM it was 17.3 µM (inactive); in the experiment with A498 it was 15.9 µM (inactive); in the experiment with OVCAR-4, 18.6 µM (inactive); with EKVX, 20.9 µM (inactive). The GI50 in the experiment on PC-3 was 14.2 µM (inactive).
In the case of `COc1cc(/C=C2\C(=O)N(c3cccc([N+](=O)[O-])c3)C(c3ccccc3)S2(=O)=O)cc(OC)c1OC` (configuration not stated), the GI50 in the experiment on SK-MEL-2, in the experiment with NCI/ADR-RES, in the experiment on HOP-62, in the experiment with OVCAR-3, with SNB-75 and in the experiment on MDA-MB-231 was > 100 µM (inactive) each time. Further, the GI50 with 786-0 was > 100 µM (inactive); with T47D, 63.7 µM (inactive); with ACHN it was > 100 µM (inactive); with RXF 393 it was > 100 µM (inactive); with SNB-19 it was > 100 µM (inactive); in the experiment with MDA-MB-435, 32.3 µM (inactive). Also, the GI50 is 64.9 µM (inactive) in the experiment with RPMI-8226; > 100 µM (inactive) in the experiment with TK-10; 62.2 µM (inactive) in the experiment on CCRF-CEM; > 100 µM (inactive) in the experiment with A498; 80 µM (inactive) in the experiment with OVCAR-4; > 100 µM (inactive) in the experiment with EKVX. Also, the GI50 is 92.7 µM (inactive) with KM12 and > 100 µM (inactive) with PC-3.
Regarding `Cc1ccc(NC(=O)CCc2nnc3s/c(=C\C=C\c4ccccc4)c(=O)n23)cc1`, the GI50 in the experiment on SK-MEL-2 is 68.7 µM (inactive); with NCI/ADR-RES it was 26.5 µM (inactive); in the experiment on HOP-62 it was > 95.5 µM (inactive); in the experiment on OVCAR-3, 44.9 µM (inactive); in the experiment on SNB-75, > 83.2 µM (inactive); in the experiment with MDA-MB-231, > 100 µM (inactive). Further, the GI50 in the experiment on 786-0 was > 100 µM (inactive); in the experiment on T47D, > 31.6 µM (inactive); with ACHN, > 100 µM (inactive); in the experiment with RXF 393 it was > 81.8 µM (inactive); in the experiment with SNB-19, > 79.6 µM (inactive); with MDA-MB-435, > 86.5 µM (inactive). Further, the GI50 was 46.9 µM (inactive) in the experiment with RPMI-8226; > 100 µM (inactive) in the experiment with TK-10; 27.8 µM (inactive) in the experiment with CCRF-CEM; > 94.4 µM (inactive) in the experiment on A498; > 56.2 µM (inactive) in the experiment on OVCAR-4; > 100 µM (inactive) with EKVX. Moreover, the GI50 in the experiment with KM12 is 61.8 µM (inactive); with PC-3 it was > 100 µM (inactive).
On to `COC(=O)c1ccc(NCc2cc(O)ccc2O)cc1O`, for which the GI50 is 16.4 µM (inactive) in the experiment with SK-MEL-2; 1.85 µM (inactive) with NCI/ADR-RES; 10.9 µM (inactive) in the experiment with HOP-62; 3.6 µM (inactive) in the experiment on OVCAR-3; 3.08 µM (inactive) in the experiment on SNB-75; 11 µM (inactive) with MDA-MB-231. The GI50 in the experiment with 786-0 is 8.07 µM (inactive); in the experiment with T47D it was 3.4 µM (inactive); in the experiment on ACHN, 9.68 µM (inactive); in the experiment with RXF 393, 7.28 µM (inactive); in the experiment with SNB-19 it was 13.2 µM (inactive); in the experiment with MDA-MB-435, 11.1 µM (inactive). Further, the GI50 is 1.17 µM (inactive) with RPMI-8226; 16.7 µM (inactive) with TK-10; 0.877 µM (active) with CCRF-CEM; 20.7 µM (inactive) in the experiment with A498; 13.2 µM (inactive) in the experiment on OVCAR-4; 13.5 µM (inactive) with EKVX. Moreover, the GI50 in the experiment on KM12 was 3.28 µM (inactive); with PC-3 it was 4.89 µM (inactive).
`COC(=O)/C=C/c1ccc2c(c1)CCC2`: the GI50 in the experiment with SK-MEL-2 is 48 µM (inactive); in the experiment on NCI/ADR-RES, 24.5 µM (inactive); with HOP-62, > 100 µM (inactive); with OVCAR-3, 17.7 µM (inactive); in the experiment with SNB-75, 18.7 µM (inactive); in the experiment with MDA-MB-231 it was 63.2 µM (inactive). Also, the GI50 is 39.4 µM (inactive) in the experiment with 786-0; 11.3 µM (inactive) in the experiment on T47D; 23.7 µM (inactive) with ACHN; 21 µM (inactive) with RXF 393; 48.5 µM (inactive) in the experiment with SNB-19; 63.1 µM (inactive) in the experiment with MDA-MB-435. The GI50 was 74.5 µM (inactive) in the experiment with RPMI-8226; > 100 µM (inactive) with TK-10; 46.9 µM (inactive) with CCRF-CEM; 27.2 µM (inactive) in the experiment on A498; 74.3 µM (inactive) with OVCAR-4; 82.6 µM (inactive) in the experiment with EKVX. The GI50 in the experiment on PC-3 is 30.4 µM (inactive).
